Source: the METLIN SMRT retention time set (Domingo-Almenara et al. 2019)

Assay: gradient 5% acetonitrile 3 min, to 50% in 2 min, to 85% in 15 min, held 3 min, 100 µL/min
Conditions: column: Zorbax Extend-C18 2.1 x 50 mm; eluents: water / acetonitrile, 0.1% formic acid
Outline: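 Standards, all pure, were combined into mixtures of ~100 molecules and run at 100 μL/min on a Zorbax Extend-C18 column (2.1 × 50 mm, 1.8 μm) with water and acetonitrile, each containing 0.1% formic acid. A coupled quadrupole time-of-flight mass spectrometer operated in positive and negative ionization mode. Retention time values come from computationally picked adduct peaks, each inspected manually.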

Compound	RP-LC retention time
Cc1ccnc(N2CCC(C(=O)NC3CCCCC3)CC2)n1	669 s
CC(C)CNc1ccc2nncn2n1	644 s
CCc1ccc(CNC(=O)c2nc3cccnc3n(CC)c2=O)cc1	915 s
COc1cc(OC)cc(C(=O)Nc2ccc(N3CCN(C4CCCCC4)C3=O)nc2)c1	889 s
COc1cc(OC)c(NS(=O)(=O)c2cc(-c3c(C)noc3NC(C)=O)ccc2OC)cc1Cl	792 s
COc1ccc(CCN)cc1	574 s
O=C(c1ccco1)N1CCN(C(=O)c2nnn3c2COC(c2ccccc2)C3)CC1 (centres undefined)	762 s
CCOc1ccc(/C=C/C(=O)Nc2nc(-c3ccc4c(c3)NC(=O)C(C)O4)c(C)s2)cc1OC (centres undefined)	980 s
O=C(Cc1nnc2cc(-c3nc(C4CC4)no3)ccn12)NCc1ccc(Cl)cc1	798 s
COc1cccc(-n2c(N3CCCC(C(=O)Nc4ccc(F)c(F)c4)C3)nc3ccsc3c2=O)c1 (centres undefined)	993 s
CSCC[C@H](NC(=O)C(C)Oc1cc(C)cc2oc(=O)c3c(c12)CCCC3)C(=O)O (some centres undefined)	860 s
Cc1nc2c(C(=O)NCCN3CCOCC3)cnn2c(C)c1Cc1ccccc1Cl	678 s
O=C(COc1ccc(Br)cc1)Nc1ccnn1Cc1cccs1	916 s
Cc1[nH]c(C(=O)N2CCC(CC(=O)N3CCCCCC3)CC2)c(C)c1C(=O)OC(C)C	879 s
O=C(c1csc(N2CCCCCC2)n1)N1CCOCC1	767 s
Cc1cc(N2CCC(NC(=O)Nc3ccc(C)c(F)c3)C2=O)ccc1F (centres undefined)	900 s
O=C(Nc1cccc(-c2nnc3n2CCCC3)c1)C1(c2ccccc2)CC1	719 s
OC1(c2ccccn2)CCOC2(CCN(Cc3cccc(Cl)c3)CC2)C1 (centres undefined)	584 s
CCC(C)N(CC(=O)N1CCc2sccc2C1COc1ccccc1OC)C(=O)COC (centres undefined)	845 s
COc1ccc(-c2noc(Cc3nnc(-c4cccc(OC)c4)o3)n2)cc1	992 s
Cc1ccc(-c2nc3nc(C)cc(C)n3c2Nc2ccccc2C)cc1	782 s
Cc1ccc(S(=O)(=O)NC(=O)NC2=NC(C)(C)N(c3ccc(Cl)c(Cl)c3)C(N)=N2)cc1	733 s
COc1ccc(Cl)cc1NC(=O)Cn1nc(N2CCCC2)c2ccccc2c1=O	1090 s

Compound	RP-LC retention time
Cc1noc(C2CN(C(=O)NC3CCCC3)CC23CCOCC3)n1 (centres undefined)	633 s
COc1ccc(-c2nc(-c3cn(Cc4ccc(F)cc4)nn3)no2)c(OC)c1	940 s
CCOc1ccc(-c2nc(Cc3noc(-c4ccncc4)n3)c(C)o2)cc1	1010 s
Cc1ccc(-c2noc(C3CC3)n2)cc1S(=O)(=O)N1CCC(C(=O)N2CCOCC2)CC1	697 s
Cc1nc(-c2cn(C(C)C)c3ncccc23)sc1C(=O)N1CCCCC1C (centres undefined)	1030 s
CNC(=O)c1csc(NC(=O)Cc2ccc(OC)cc2)n1	634 s
CC1CCN(S(=O)(=O)c2ccc(-c3nnc(C(=O)NC4CC4)o3)cc2)CC1	876 s
Cc1ccccc1S(=O)(=O)N1[C@H]2CC[C@@H]1c1cnc(-c3ccccc3)nc1C2	1140 s
COC(=O)c1c(C)[nH]c(C(=O)N2CCCC(C(=O)N3CCN(c4ccc(OC)cc4)CC3)C2)c1C (centres undefined)	707 s
Cc1nc2ccc(C(=O)N3CCCCCC3)cc2nc1C	605 s
COc1ccc(CNS(=O)(=O)c2cc(-c3nc(C(C)(C)C)cs3)cs2)cc1	1200 s
O=C(O)C1CCN(c2nc3ccc(-c4cncnc4)nc3s2)CC1	674 s
O=C(Cc1cccc(F)c1)Nc1ccc2c(c1)CCC(=O)N2	650 s
CN(CCc1noc(-c2ccc(F)cc2)n1)C(=O)Nc1cc(F)ccc1F	924 s
Cc1ccc(C)c(CNS(=O)(=O)c2cc(-c3csc(C)n3)sc2C)c1	1100 s
O=C(NC1CCCCC1)N1CCCC1c1nc(-c2cccc(F)c2)no1 (centres undefined)	984 s
Cc1ccc(-c2cn3c(CC(=O)Nc4ccc(F)cc4Cl)csc3n2)cc1C	911 s
COc1ccc(-c2ncc3c(n2)CCN(S(=O)(=O)c2ccccc2C(F)(F)F)C3)cc1	1090 s
CC(NC(=O)c1cc(-c2ccc(F)cc2)cn1C)c1ccccn1 (centres undefined)	722 s
Cc1nnc2ccc(-c3noc(-c4cccc(F)c4)n3)cn12	881 s
O=C(CN1C(=O)NC2(CCCCC2)C1=O)Nc1cccc(F)c1	633 s
Cc1nnc(N2CCCC(C(=O)NCc3ccccc3)C2)c2nn(-c3ccc(Cl)cc3)c(C)c12 (centres undefined)	765 s
Cc1ccc(-c2nnc(Cc3nc(-c4ccc(Cl)cc4)no3)o2)cc1F	1190 s

Compound	RP-LC retention time
CC(C)n1c(=O)sc2cc(S(=O)(=O)N3CCC(C(=O)NCc4ccco4)CC3)ccc21	861 s
CC(C)NC(=O)c1ccc(OCC2CCCN(C(=O)c3cccc(F)c3)C2)cc1 (centres undefined)	846 s
Cc1cnn(CC(=O)N2CC(n3cc(COc4ccc(F)cc4)nn3)C2)c1	714 s
COC(=O)c1ccc2c(=O)n(-c3cc(F)cc(F)c3)c(N3CCN(c4ccccn4)CC3)nc2c1	753 s
CCn1cc(-c2nc(CC(=O)N3CCN(c4ccc(F)cc4)CC3)cs2)c2cccnc21	921 s
Cc1c(F)cccc1NC(=O)N1CCN(C2=CC3=NC(C)CN3C=N2)CC1 (centres undefined)	649 s
COc1ccccc1Cc1noc(C2CN(C(=O)c3ccc4nsnc4c3)C2)n1	814 s
CS(=O)(=O)N1CCC(C(=O)NCc2ccsc2)CC1	616 s
Cn1ccnc1C(=O)N1CCCCCCNC(=O)[C@@H]2CCCC[C@@H]21	627 s
CSc1ccc(CCNC(=O)C2CCCN(C(=O)Cc3cccc4ccccc34)C2)cc1 (centres undefined)	971 s
CCN(CC)C(=O)CSc1nnc(-c2ccc3c(c2)OCCCO3)n1C	691 s
COc1cccc(-c2c(C(=O)O)nnn2-c2ccc3c(c2)OCCO3)c1	744 s
Cc1cc(Cl)ccc1NC(=O)C1CCCN1S(=O)(=O)c1cc2c(cc1C)NC(=O)CO2 (centres undefined)	832 s
O=C(NC1CCCCC1)C1CCc2ncc(-c3ccsc3)n2C1 (centres undefined)	584 s
COC(=O)c1c(NCc2ccccc2C(F)(F)F)c2cccc(Cl)c2[nH]c1=O	879 s
Cc1ccc(CSc2nc(CC(=O)Nc3ccc(-n4cnnn4)cc3)cs2)cc1	868 s
COc1ccc(-n2ccc(=O)c(-c3nc(-c4ccc(F)c(Cl)c4)no3)n2)cc1	966 s
O=C(Cn1nc2c3cc(F)ccc3ncn2c1=O)Nc1ccc(Br)cc1	745 s
COc1ccc(N2CCN(c3nc(C(=O)NCC4CCCO4)cs3)CC2)cc1 (centres undefined)	821 s
CCOc1ccc(-n2nnnc2CNS(=O)(=O)c2ccc(CC)s2)cc1	949 s
Cc1ccc(C)c(N2CCN(C(=O)c3[nH]c(C)c(S(=O)(=O)N4CCCC4)c3C)CC2)c1	1020 s
COc1ccc(N/C=C2\C(=O)CCc3c2oc2cc(Cl)c(O)c(Cl)c32)cc1	1170 s
CCCN1CCc2cc(O)cc3c2[C@H]1Cc1ccc(O)c(O)c1-3	646 s

Compound	RP-LC retention time
CCOCCCNC(=O)N1CCOc2ccc(CN(CC)CC)cc2C1	591 s
O=C(COc1ccccc1Cl)NCCCn1nc(-c2ccc(F)cc2)ccc1=O	807 s
COc1cc(OC)c(NC(=O)Cn2ccn3nc(-c4ccccc4)c(CO)c3c2=O)cc1Cl	849 s
O=C(Nc1c(-c2ccc(F)cc2)nc2ccccn12)c1ccc(Cl)c([N+](=O)[O-])c1	733 s
O=c1c2ccccc2ncn1-c1ccc(Cl)cc1	870 s
CCn1ccc(C(=O)NCC2Cn3cccc3C(=O)N2C)n1 (centres undefined)	596 s
COc1cc(NC(=O)C2(Cc3ccccc3)CCCCC(=O)N2)cc(OC)c1 (centres undefined)	847 s
Cn1ncc(NC(=O)c2ccc(Cl)cc2)c(N2CCOCC2)c1=O	771 s
Cc1c(C)n(C(=O)CN2CCC(C(N)=O)CC2)c2ccccc12	614 s
CN1C(=O)c2cc(C(=O)NCc3ccc(Cl)cc3)nn2CC1(C)C(=O)NCc1ccc(F)cc1 (centres undefined)	805 s
Cc1c(Cl)ccc2c(=O)c3c([nH]c12)CCN(CC(=O)Nc1cccc(Cl)c1)C3	704 s
CC(C)n1cnc(S(=O)(=O)N2CCC(C(=O)N3CCN(c4ccc(Cl)cc4)CC3)CC2)c1	865 s
COCc1nnc(-c2ccc3c(c2)OCO3)o1	722 s
CN(C)C[C@@H]1CN(c2ncccn2)C[C@H]1NC(=O)c1ccc(Cl)s1	605 s
O=C(Cc1csc(NC(=O)Nc2cccc(Cl)c2)n1)Nc1ccccc1	924 s
Cc1c(-c2noc(-c3ccc4cc[nH]c4c3)n2)nnn1Cc1cccc(F)c1	996 s
COc1ccc(Cc2nc3nccc(-c4ccccc4)n3n2)cc1	872 s
O=C(C1CC1)N1CCc2sc(S(=O)(=O)NCc3ccccc3F)cc2C1	815 s
Cc1ccc(NC(=O)C2CCN(S(=O)(=O)c3ccc4[nH]c(=O)sc4c3)CC2)cc1Cl	904 s
CCOC(=O)C1=C(N)Oc2c(oc(CO)cc2=O)C1c1cccnc1 (centres undefined)	612 s
